Molecules are shown by their SMILES. Where a SMILES comes first, the peptide text is derived from it. [ ]: non-standard residue; d: D form. The star is where a group is joined. Orn(α-tetramethylguanidino) = CN(C)C(=N[C@@H](CCCN)C(=O)*)N(C)C; Orn = NCCC[C@H](N)C(=O)O

The text below walks through data of article PMC4861708 (Frontiers in Cell and Developmental Biology, 2016).

Series [1] has as its system HeLa cells. In kind it is cell-based. The following applies: 24 h. Here is the method:
Human embryonic kidney (HEK293) and HeLa cells were cultured in Dulbecco's modified Eagle's/Ham's F-12 medium [DMEM/F-12 (1:1)] supplemented with FBS (10% v/v), penicillin, and streptomycin (1000 units each). Primary rat cardiomyocytes (Innoprot, Elexalde Derio, Spain) were grown in medium supplemented with FBS (20% v/v), horse serum (5% v/v), L-glutamine (2 mmol/L), sodium pyruvate (2 mmol/L), MEM non-essential amino acids (Gibco, 0.1 mmol/L), penicillin, and streptomycin (1000 units each). Surfaces for cardiomyocyte growth were coated with attachment factor first. Cells (20,000/well) were seeded into a 96-well plate (PS, sterile, flat bottom), incubated for 24 h (37°C, 5% CO2), and washed twice with PBS (100 μl/well) prior to adding colorless medium (88 μL) and peptide solution (12 μL; 5, 2.5, 1.25, […], and 0.625 g/L in PBS). Positive controls were triton X-100 (1%, v/v) and melittin (60 mg/L) as lytic peptide, whereas PBS (12%, v/v) served as negative control. After an incubation period of 24 h, supernatant (25 μL) was mixed with lactate dehydrogenase (LDH) substrate (175 μL; 0.57 mmol/L sodium pyruvate, 0.24 mmol/L NADH disodium salt, 32 mmol/L potassium dihydrogen phosphate, 66 mmol/L dipotassium phosphate) in 96-well plates (PS, sterile, flat bottom). Absorbance was recorded at 340 nm every 3 min for 30 min on the Paradigm microplate reader. […]

The test system of another series is human erythrocytes. Put plainly: Hemolysis assay. In kind it is cell-based. The following applies: 0.1 g/L peptide, 1 h. Here is the method: Human EDTA blood (S-Monovette® with potassium-EDTA Sarstedt AG, Nümbrecht, Germany) was centrifuged (3 min, 300 × g, 4°C) and blood cells were washed three times using the 10-fold volume of cold PBS. The diluted blood cell suspension (2% v/v in PBS, 50 μL) was mixed with a peptide solution (1.2 or 0.2 g/L in PBS, 50 μL) or triton X-100 (1%, v/v in PBS; control) in 96-well plates (PP, V-bottom). After incubation under constant shaking (1 h, 37°C, 300 rpm, Eppendorf Thermomixer) the suspension was centrifuged (3 min, 4°C, 1000 × g) and the OD405 of the supernatant was measured in a 384-well plate (PS, flat bottom, Paradigm microplate reader, Molecular Devices, Sunnyvale, USA). The hemolytic grade (HG) was calculated as [(ODPeptide−ODPBS)/(ODTriton−ODPBS)] × 100%.

The test system of series [2] is HeLa cells. In words: Flow cytometry, cell uptake of Cf-labeled peptides. As to conditions: flow cytometry (abstract). The series is classed as cell-based. Here is the method: HeLa cells (50,000 for endocytosis inhibition and 70,000 for uptake kinetics) suspended in DMEM/F-12 medium (300 μL; see above) were seeded into 48-well plates (PS, sterile, flat bottom) and incubated (23 ± 1 h) using the conditions described above. Cells were washed twice with PBS (300 μL/well) and fresh medium was added (144 μL).
Peptide solutions (6 μL; 1 mmol/L in H2O) were added to achieve a concentration of 40 μmol/L at different time points. Cells were washed three times with PBS (300 μL/well), treated with trypsin (75 μL; 0.05% w/v trypsin, 5 min, 37°C), rinsed off the plate using cold PBS (600 μL/well), and trypsin was removed by two washing steps (400 × g, 4°C, 4 min, 600 μL PBS each). Cells were suspended in PBS (0.1 mL) containing eFluor660 (1000 × diluted in PBS) and incubated on ice in the dark. After 30 min, cells were washed with cold PBS twice, suspended in formaldehyde (100 μL; 2% w/v in PBS), incubated (15 min, RT), washed (200 μL PBS), stored in FACS buffer (200 μL; 3% FBS, 0.1% NaN3 in PBS) overnight, and analyzed on a FACSCalibur (Becton Dickinson, New Jersey, USA). Alternatively, cells were fixed directly without prior eFluor660 staining.
(A flow cytometer gives signals particle by particle.)

Details of series [3]: method as in unpublished data. The following applies: four intraperitoneal injections of 80 mg/kg per day; ref unpublished data; cited from earlier work.
The subject of series [4] is Escherichia coli ATCC25922. Also on record: method as in unpublished data. The following applies: mouse infection models with E. coli ATCC25922, doses of only 0.6 mg/kg; ref unpublished data; cited from earlier work.
Another series has as its system HEK293 cells. Also on record: method as in Berthold et al., 2013; Bluhm et al., 2015. As to conditions: ref Berthold et al., 2013, Bluhm et al., 2015; cited from earlier work.
In series [5] the test system is Primary rat cardiomyocytes. Also on record: method as in Berthold et al., 2013; Bluhm et al., 2015. The following applies: ref Berthold et al., 2013, Bluhm et al., 2015; cited from earlier work.

With `CC(C)C[C@H](NC(=O)[C@H](CCCNC(=N)N)NC(=O)[C@@H]1CCCN1C(=O)[C@H](Cc1c[nH]cn1)NC(=O)[C@@H]1CCCN1C(=O)[C@@H]1CCCN1C(=O)[C@H](CCCNC(=N)N)NC(=O)[C@@H]1CCCN1C(=O)[C@H](CCCNC(=N)N)NC(=O)[C@@H]1CCCN1C(=O)[C@H](CCCN)NC(=O)[C@H](Cc1ccc(O)cc1)NC(=O)[C@@H](NC(=O)[C@@H]1CCCN1C(=O)[C@H](CCCNC(=N)N)NC(=O)[C@H](CCCN)NC(=O)[C@H](Cc1c[nH]c2ccccc12)NC(=O)[C@H](CCCN)NC(=O)[C@H](Cc1c[nH]c2ccccc12)NC(=O)[C@H](CCCN)NC(=O)[C@H](Cc1c[nH]c2ccccc12)NC(=O)[C@H](CCCN)N=C(N(C)C)N(C)C)C(C)C)C(=O)O` [Api794, gu-O(WO)3RPVYOPRPRPPHPRL-OH] ({Orn(α-tetramethylguanidino)}-W[Orn]W[Orn]W[Orn]RPVY[Orn]PRPRPPHPRL-OH), in the series with HeLa cells [1], the “EC50 of LDH release” value amounted to 560 ± 160 µg/mL. This compound displayed a Hemolytic grade in the series on human erythrocytes of 1.7 ± 0.2%. Besides, the “higher uptake compared with Api795” value with HeLa cells [2] was found to be 50%.
In the case of `CC[C@H](C)[C@H](NC(=O)[C@H](Cc1ccc(O)cc1)NC(=O)[C@@H](NC(=O)[C@@H]1CCCN1C(=O)[C@H](CCCNC(=N)N)NC(=O)[C@H](CC(N)=O)NC(=O)[C@H](CC(N)=O)NC(=O)[C@H](CCCN)N=C(N(C)C)N(C)C)C(C)C)C(=O)N1CCC[C@H]1C(=O)N[C@@H](CCCNC(=N)N)C(=O)N1CCC[C@H]1C(=O)N[C@@H](CCCNC(=N)N)C(=O)N1CCC[C@H]1C(=O)N1CCC[C@H]1C(=O)N[C@@H](Cc1c[nH]cn1)C(=O)N1CCC[C@H]1C(=O)N[C@@H](CCCNC(=N)N)C(=O)N[C@@H](CC(C)C)C(=O)O` [Api137, gu-ONNRPVYIPRPRPPHPRL-OH, reference compound] ({Orn(α-tetramethylguanidino)}-NNRPVYIPRPRPPHPRL-OH), in series [3], the “in vivo tolerance, acute toxic effects” value is given as “no acute toxic effects”. For the same compound, in series [4], the survival rate is reported as 100%. For the same compound, the “IC50 on cell viability” value (in the series with HEK293 cells; in series [5]) was over 600 µg/mL throughout.
